Active and inactive are the calls of the source. The rule behind the calls is not given here.
How the values were obtained:
[1] = target: E3 ubiquitin-protein ligase XIAP (Homo sapiens, UniProt P98170); experiment: Binding affinity to BIR3 domain of XIAP by competitive fluorescent binding assay
Homo sapiens = species on record: Homo sapiens; experiment: Cytotoxicity against […] cells assessed as reduction in cell viability at 30 to 500 uM after 72 hrs by MTT assay; assay type: functional, cell-based

Chain of E3 ubiquitin-protein ligase XIAP (P98170 whole entry, the tested form may be a part): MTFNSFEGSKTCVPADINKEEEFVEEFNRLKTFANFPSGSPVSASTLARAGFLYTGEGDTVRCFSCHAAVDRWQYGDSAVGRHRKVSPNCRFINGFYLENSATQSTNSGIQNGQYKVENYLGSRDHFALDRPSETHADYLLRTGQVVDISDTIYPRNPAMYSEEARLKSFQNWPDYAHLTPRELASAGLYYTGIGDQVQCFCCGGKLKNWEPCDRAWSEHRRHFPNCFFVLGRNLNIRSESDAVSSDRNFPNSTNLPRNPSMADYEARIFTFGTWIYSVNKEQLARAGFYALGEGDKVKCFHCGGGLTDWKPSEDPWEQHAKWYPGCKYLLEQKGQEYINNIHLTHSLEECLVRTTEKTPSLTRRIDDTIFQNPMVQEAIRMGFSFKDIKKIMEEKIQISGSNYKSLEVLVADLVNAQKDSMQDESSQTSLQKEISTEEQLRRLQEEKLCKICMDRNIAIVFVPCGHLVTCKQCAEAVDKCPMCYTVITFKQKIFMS

Structure (SMILES): CC[C@H](C)[C@H](NC(=O)[C@@H]1CCCN1C(=O)c1coc([C@H](C)N)n1)C(=O)O
- Kd [1]: 300 µM

Structure (SMILES): CC[C@H](C)[C@H](NC(=O)[C@@H]1CCCN1C(=O)[C@@H](NC(=O)[C@H](C)N)C(C)C)C(=O)O
- Activity (Homo sapiens): inactive

Structure (SMILES): C[C@H](N)c1nc(C(=O)N2CCC[C@H]2C(=O)N[C@@H](Cc2ccccc2)C(=O)O)co1
- Kd [1]: 11 µM

Structure (SMILES): C[C@H](N)c1nc(C(=O)N2CCC[C@H]2C(=O)N[C@@H](Cc2c[nH]c3ccccc23)C(=O)O)co1
- Activity (Homo sapiens): Active
